Results from the COVID Moonshot data (paper PMC7615835).
pIC50: −log10 of the molar value. Several values for one entry are separate records, joined by “and”; a condition that tells them apart may be missing. Identical values can stand only once.

Biological target: SARS-CoV-2 Main Protease (SARS-CoV-2) (UniProt P0DTD1)

Cc1cc(Nc2cc(Cl)cc(CC(=O)Nc3cncc4ccccc34)c2)cc(C)c1Br and Cc1cc(Br)cc(Nc2cc(Cl)cc(CC(=O)Nc3cncc4ccccc34)c2)c1 are within 0.2 log units of each other in pIC50: 5.67 for the first, 5.71 for the second.

First: CNC(=O)CN1Cc2ccc(Cl)cc2C(C(=O)Nc2cncc3ccc(C(C)(C)O)cc23)C1 (stereo unspecified)
Second: CNC(=O)C(C)(C)N1CC(C(=O)Nc2cncc3ccccc23)c2cc(Cl)ccc2C1=O (stereo unspecified)
The pIC50 of the first is 0.26 log units higher: 6.25 for the first, 5.99 for the second. The first is the more potent here.

Going from CN(C)S(=O)(=O)N1CCN(C(=O)C2Nc3ccccc3S(=O)(=O)N2)CC1 (stereo unspecified) to O=C(CCl)N1CCCN(S(=O)(=O)c2ccccc2F)CC1, the pIC50 rises from < 4.00 to 4.81.

Going from Cc1cc(C(F)(F)F)nc2c1c(N)nn2C(=O)C1CCOc2ccc(Cl)cc21 (stereo unspecified) to O=C(Oc1cncc2ccccc12)C1CCOc2ccc(Cl)cc21 (stereo unspecified), the pIC50 rises from < 4.00 to 6.28. The second is the more potent here.

CC(C)(C)c1ccc(N(C(=O)c2cocn2)C(C(=O)NCC2CCOC2)c2cccnc2)cc1 (stereo unspecified) and CC(C)(C)c1ccc(N(C(=O)c2cocn2)C(C(=O)NC2CCOCC2)c2cccnc2)cc1 (stereo unspecified) are within 0.2 log units of each other in pIC50: 5.27 for the first, 5.41 for the second.

First: CC(C)(C)c1ccc(N(C(=O)c2nnc(O)cc2O)C(C(=O)NCCc2cccc(F)c2)c2cccnc2)cc1 (stereo unspecified)
Second: C=CC(=O)N(c1ccc(C(C)(C)C)cc1)[C@@H](C(=O)NCCc1cccc(F)c1)c1cccnc1 (stereo in doubt)
The pIC50 of the first is lower: < 4.00 for the first, 4.06 for the second.

First: Cc1ccc2nc(Nc3cc(Cl)cc(CC(=O)Nc4cncc5ccccc45)c3)sc2c1
Second: Cc1cc(I)ccc1Nc1cc(Cl)cc(CC(=O)Nc2cncc3ccccc23)c1
The pIC50 of the first is 0.97 log units lower: 4.64 for the first, 5.61 for the second.

Going from N#CC1(CS(=O)(=O)N2Cc3ccc(Cl)cc3C3(CCN(c4cncc5ccc(C(F)F)cc45)C3=O)C2)CC1 (stereo unspecified) to N#CC1(CS(=O)(=O)N2Cc3ccc(Cl)cc3C3(CCN(c4cncc5ccccc45)C3=O)C2)CCS(=O)(=O)CC1 (stereo unspecified), the pIC50 rises from 6.45 to 6.68 (0.23 log units). The second is the more potent here.

Compared with O=C1CCCN(S(=O)(=O)c2cccs2)CC1, O=C(CCl)N1CCCN(S(=O)(=O)c2cccc(F)c2)CC1 is higher in pIC50: < 4.00 for the first, 4.76 for the second. The second is the more potent here.

Cc1ccncc1NC(=O)C(CO)c1cccc(Cl)c1 (stereo unspecified) and Cc1ccncc1NC(=O)N(C)c1cccc(Cl)c1 cannot be ordered by pIC50: < 4.00 for the first, < 4.00 for the second.

First: O=C(Cc1cc(Cl)cc(Nc2ccc(C(F)(F)F)cn2)c1)Nc1cncc2ccccc12
Second: Cc1nc(Nc2cc(Cl)cc(CC(=O)Nc3cncc4ccccc34)c2)ccc1Br
The pIC50 of the first is 0.28 log units lower: 5.40 for the first, 5.68 for the second. The second is the more potent here.

First: Cc1ccncc1NC(=O)CN1CCC(C)CC1
Second: Cc1ccncc1NC(=O)N(CCC1CCCCC1)c1cc(Cl)cc(OC(C)C)c1
The pIC50 of the first is 0.30 log units lower: 4.31 for the first, 4.61 for the second.

COc1cc(OC)nc(C#N)n1 and COc1cc(OC)cc(-c2nc(-c3c(C)nc4sccn34)no2)c1 cannot be ordered by pIC50: < 4.00 for the first, < 4.00 for the second.

Going from C=CC(=O)N(c1ccc(C(C)(C)C)cc1)C(C(=O)NCCSC)c1cccnc1 (stereo unspecified) to C=CC(=O)N(c1ccc(C(C)(C)C)cc1)[C@H](C(=O)NCCc1cccc(F)c1)c1cccnc1 (stereo in doubt), the pIC50 rises from 4.69 to 5.54 (0.85 log units).

O=C(Cc1cc(Cl)cc(OC2CCC(=O)N2)c1)Nc1cncc2ccccc12 (stereo unspecified) and O=C(Cc1cc(Cl)cc(N2CCCCC2)c1)Nc1cncc2ccccc12 cannot be ordered by pIC50: 4.07 for the first, < 5.00 for the second.

Going from O=C(Cc1cccc(Cl)c1)Nc1n[nH]c2ccncc12 to O=C(Cc1cccc(Cl)c1)Nc1cncc2c1NCCC2, the pIC50 rises from < 4.00 to 4.42.

Cc1ccc2ccccc2c1Nc1cc(Cl)cc(CC(=O)Nc2cncc3ccccc23)c1 and O=C(Cc1cc(Cl)cc(Nc2ccc(Oc3ccccc3Cl)cc2)c1)Nc1cncc2ccccc12 are the same in pIC50: 5.60 for the first, 5.60 for the second.

CC(C)(C)c1ccc(N(C(=O)c2ccc(=O)[nH]n2)C(C(=O)NCCc2cccc(F)c2)c2cccnc2)cc1 (stereo unspecified) and Cn1cncc1C(=O)N(c1ccc(C(C)(C)C)cc1)C(C(=O)NCCc1cccc(F)c1)c1cccnc1 (stereo unspecified) cannot be ordered by pIC50: < 4.00 for the first, < 4.00 for the second.

First: C=CC(=O)NCc1ccc(C(=O)NCc2cc(C)cc3c(C)c(C)[nH]c23)cc1
Second: O=C(Cc1cc(Cl)cc(NCc2ccc(I)cc2)c1)Nc1cncc2ccccc12
The pIC50 of the first is lower: < 4.00 for the first, 5.36 for the second.

First: C=CC(=O)N(c1ccc(C(F)(F)F)cc1)C(C(=O)NCCc1cccc(F)c1)c1cncc(Cl)c1 (stereo unspecified)
Second: Cc1nc(C2CC2)oc1C(=O)N(c1ccc(C(C)(C)C)cc1)C(C(=O)NCCc1cccc(F)c1)c1cccnc1 (stereo unspecified)
The pIC50 of the first is higher: 4.62 for the first, < 4.00 for the second. The first is the more potent here.

First: O=C(Cc1cccc(Cl)c1)NC1=NC(=O)c2ccccc21
Second: O=C(Cc1cccc(Cl)c1)Nc1cnc2n1CCCC2
The pIC50 of the first is lower: < 4.00 for the first, 4.03 for the second. The second is the more potent here.

First: CC1(C(=O)Nc2cncc3ccc(F)cc23)CNS(=O)(=O)c2ccc(Cl)cc21 (stereo unspecified)
Second: Cn1ccc(CN2Cc3ccc(Cl)cc3C(C(=O)Nc3cncc4ccc(F)cc34)C2)n1 (stereo unspecified)
The pIC50 of the first is 0.49 log units higher: 6.36 for the first, 5.87 for the second.

Going from CN(CC(=O)Nc1ccccc1Br)C(=O)CCl to C=CC(=O)NCC(=O)N(Cc1ccccc1O)C[C@@H]1CCCO1 (stereo in doubt), the pIC50 falls from 5.23 to < 4.00.

Compared with CC(C)S(=O)(=O)Nc1ccc2c(NC(=O)C3CN(S(=O)(=O)CC4(C#N)CC4)Cc4ccc(Cl)cc43)cncc2c1 (stereo unspecified), COc1ccc2c(NC(=O)C3CN(S(=O)(=O)CC4(C#N)CC4)Cc4ccc(Cl)cc43)cncc2c1 (stereo unspecified) is 0.58 log units lower in pIC50: 7.05 for the first, 6.47 for the second.

CC(C)(C)c1ccc(N(C(=O)c2cc(=O)n3ncnc3[nH]2)C(C(=O)NCCc2cccc(F)c2)c2cccnc2)cc1 (stereo unspecified) and CC(C)S(=O)(=O)c1ccc(N(C(=O)c2cnc[nH]2)C(C(=O)NCCc2cccc(F)c2)c2cccnc2)cc1 (stereo unspecified) cannot be ordered by pIC50: < 4.00 for the first, < 4.00 for the second.

First: CC(NC(=O)C1CCC(=O)NC1)(C(=O)Nc1cncc2ccccc12)c1ccc(Cl)c(Cl)c1 (stereo unspecified)
Second: O=C(Nc1cncc2ccccc12)C1CN(C(=O)c2ncco2)Cc2ccc(Cl)cc21 (stereo unspecified)
The pIC50 of the first is 0.65 log units lower: 5.39 for the first, 6.04 for the second. The second is the more potent here.

O=C(Nc1cncc2ccccc12)C1CN(S(=O)(=O)N2CCOCC2)Cc2ccc(Cl)cc21 (stereo unspecified) and Cc1nocc1C(=O)N1Cc2ccc(Cl)cc2C(C(=O)Nc2cncc3ccccc23)C1 (stereo unspecified) are within 0.2 log units of each other in pIC50: 6.86 for the first, 6.77 for the second.

Going from O=C(CN1CC(C(=O)Nc2cncc3cc(F)ccc23)c2cc(Cl)ccc2C1=O)NCC1CC1 (stereo unspecified) to CNC(=O)c1ccc2cncc(NC(=O)C3CN(S(=O)(=O)CC4(C#N)CC4)Cc4ccc(Cl)cc43)c2c1 (stereo unspecified), the pIC50 rises from 6.67 to 6.94 (0.27 log units). The second is the more potent here.

First: O=C(c1cc(F)cc(F)c1)N1CCOc2cc(O)ccc2C1
Second: O=C1NCC(C(=O)Nc2cncc3ccccc23)c2cc(F)cc(F)c21 (stereo unspecified)
The pIC50 of the first is lower: < 4.00 for the first, 5.76 for the second. The second is the more potent here.

Compared with C/C=C/C=C/C(=O)N1CC=C(c2c[nH]c3ncccc23)CC1, Cn1nnnc1C1=CCN(C(=O)CC2(C(=O)Nc3cncc4ccccc34)CCOc3ccc(Cl)cc32)CC1 (stereo unspecified) is higher in pIC50: < 4.00 for the first, 5.04 for the second.

First: O=C(NCc1ccc2c(c1)OCO2)c1nc(S(=O)(=O)Cc2ccccc2)ncc1Cl
Second: Cc1ccc(S(=O)(=O)N2CCN(C(=O)CCl)C[C@H]2C(=O)NCc2ccccc2)cc1 (stereo in doubt)
The pIC50 of the first is 0.41 log units higher: 5.85 for the first, 5.44 for the second. The first is the more potent here.

First: O=c1oc(Nc2ccccc2)nc2ccccc12
Second: O=C(CCc1nc2ccccc2[nH]1)N1CCC(CCc2ccccc2)CC1
The pIC50 of the first is higher: 5.80 for the first, < 4.00 for the second. The first is the more potent here.

Compared with O=C(Nc1cccc(C(F)(F)F)c1)Nc1ccccc1Sc1ncc([N+](=O)[O-])s1, O=C(Cc1cc(Cl)cc(Nc2ccc(OC(F)F)cc2)c1)Nc1cncc2ccccc12 is 0.52 log units higher in pIC50: 5.20 for the first, 5.72 for the second.

COc1c(O[C@@H]2O[C@H](CO)[C@@H](O)[C@H](O)[C@H]2O)cc2oc(-c3ccc(O)cc3)cc(=O)c2c1O (stereo in doubt) and O=c1c(O[C@@H]2O[C@H](CO)[C@H](O)[C@H](O)[C@H]2O)c(-c2ccc(O)c(O)c2)oc2cc(O)cc(O)c12 (stereo in doubt) cannot be ordered by pIC50: < 4.00 for the first, < 4.00 for the second.

Compared with O=C(Cc1cc(Cl)cc(Nc2ccc(F)cc2I)c1)Nc1cncc2ccccc12, CCCOc1ccc(Nc2cc(Cl)cc(CC(=O)Nc3cncc4ccccc34)c2)cc1 is 0.22 log units lower in pIC50: 5.75 for the first, 5.53 for the second.

Compared with COc1ccc([C@H](C)Nc2cc(Cl)cc(CC(=O)Nc3cncc4ccccc34)c2)cc1 (stereo in doubt), COc1cc(Cl)nc(Nc2cc(Cl)cc(CC(=O)Nc3cncc4ccccc34)c2)n1 is 0.97 log units higher in pIC50: 5.33 for the first, 6.30 for the second.

First: COc1cccc(N2CCN(C(=O)c3cc(=O)[nH]c4ccccc34)CC2)c1
Second: CN1CCN(C2CCN(c3cc(Cl)cc(CC(=O)Nc4cncc5ccccc45)c3)CC2)CC1
The pIC50 of the first is 0.22 log units lower: 5.12 for the first, 5.34 for the second.

Going from Cc1cn2ccc(C(=O)Nc3nc(-c4cnn(C)c4)cs3)cc2n1 to CCCc1nn(C)c(C(=O)Nc2cc(Cl)cc(CC(=O)Nc3cncc4ccccc34)c2)c1N, the pIC50 rises from < 4.00 to 5.13.

Compared with O=C(NCCc1ccccc1)[C@@H]1CN(C(=O)CCl)CCN1S(=O)(=O)c1ccsc1 (stereo in doubt), Cc1ccc(C)c(S(=O)(=O)N2CCN(C(=O)CCl)CC2)c1 is 1.04 log units lower in pIC50: 5.89 for the first, 4.85 for the second.

Going from Cc1c(N)cncc1NC(=O)Cc1cccc(C#N)c1 to Cc1ccncc1NC(=O)Cc1cc(Cl)cc(-c2ccc(C)c(F)c2F)c1, the pIC50 falls from 4.79 to 4.50 (0.29 log units). The first is the more potent here.

Compared with C[C@H](N)C(=O)N[C@@H](CCC(N)=O)C(=O)O (stereo in doubt), NC(=O)C1Cc2nc[nH]c2CN1C(=O)CC1(C(=O)Nc2cncc3ccccc23)CCOc2ccc(Cl)cc21 (stereo unspecified) is higher in pIC50: < 4.00 for the first, 5.03 for the second. The second is the more potent here.

Compared with Cc1[nH]c2ccccc2c1/C=N/c1sc2c(c1C#N)CCC(C)C2 (stereo unspecified), O=C(CC1(C(=O)Nc2cncc3ccccc23)CCOc2ccc(Cl)cc21)N1CCCC1c1nn[nH]n1 (stereo unspecified) is higher in pIC50: < 4.00 for the first, 5.10 for the second.

O=C(NCCc1cccc(F)c1)C(c1cccnc1)N(C(=O)c1cnc[nH]1)c1cnc(C2CCC2)nc1 (stereo unspecified) and COc1ccc(N(C(=O)c2ccco2)C(C(=O)NCCc2cccc(F)c2)c2cccnc2)cc1OCCO (stereo unspecified) cannot be ordered by pIC50: < 4.00 for the first, < 4.00 for the second.

Going from CNC(=O)CN1Cc2ccc(Cl)cc2C2(CCN(c3cncc4ccc(OCCN(C)C)cc34)C2=O)C1 (stereo unspecified) to CNC(=O)CN1C[C@]2(CC(=O)N(c3cncc4ccccc34)C2=O)c2cc(Cl)ccc2C1=O (stereo in doubt), the pIC50 falls from 6.68 to 4.07 (2.61 log units).

CCCOc1c(Cl)cc(C(=O)N2CCC(C3CCNC3)CC2)cc1OCC (stereo unspecified) and O=C(Cn1nnc2ccccc21)N(CC1CCOC1)c1ccc(C2CCNCC2)cc1 (stereo unspecified) cannot be ordered by pIC50: < 4.00 for the first, < 4.00 for the second.

CN(C)c1ncc(C(C(=O)NCCc2cccc(F)c2)N(C(=O)c2cocn2)c2ccc(C(C)(C)C)cc2)cn1 (stereo unspecified) and Cc1cc(O)c(C(C(=O)NCCc2cccc(F)c2)N(C(=O)c2cocn2)c2ccc(C(C)(C)C)cc2)c(=O)[nH]1 (stereo unspecified) cannot be ordered by pIC50: < 4.00 for the first, < 4.00 for the second.

With CSc1ccc(CN(C(=O)c2ccco2)C(C(=O)NCCc2cccc(F)c2)c2cccnc2)cc1C#N (stereo unspecified) the pIC50 was 4.26.

With CS(=O)(=O)c1ccc2c(NC(=O)C3CN(S(=O)(=O)CC4(C#N)CC4)Cc4ccc(Cl)cc43)cncc2c1 (stereo unspecified) the pIC50 was 7.24 and 6.93.
For O=C(Nc1cncc2ccccc12)[C@H]1CN(S(=O)(=O)CC2CS(=O)(=O)C2)Cc2ccc(Cl)cc21 (stereo in doubt), the pIC50 was 7.30 and 6.97 and 7.13.
With O=C(CCl)N1CCN(C(c2ccccc2)C2CCOCC2)CC1 (stereo unspecified) the pIC50 was 4.55 and 4.82.
